From patent publication US11542492B2 (Celgene CAR LLC, priority 2009, dated 2023) come the findings set out here.

Some results are limits rather than exact numbers.

The first experiment deals with T1, HCV NS3/4A 1b protease enzyme (wild type) (Hepatitis C virus genotype 1b, UniProt P26663).
T1 construct: 10× stocks of NS3/4A protease enzyme from Bioenza (Mountain View, Calif.); purchased Bioenza
T1 sequence (P26663 1658-1711): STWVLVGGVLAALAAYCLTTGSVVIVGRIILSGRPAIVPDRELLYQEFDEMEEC
T1 sequence (P26663 1027-1657): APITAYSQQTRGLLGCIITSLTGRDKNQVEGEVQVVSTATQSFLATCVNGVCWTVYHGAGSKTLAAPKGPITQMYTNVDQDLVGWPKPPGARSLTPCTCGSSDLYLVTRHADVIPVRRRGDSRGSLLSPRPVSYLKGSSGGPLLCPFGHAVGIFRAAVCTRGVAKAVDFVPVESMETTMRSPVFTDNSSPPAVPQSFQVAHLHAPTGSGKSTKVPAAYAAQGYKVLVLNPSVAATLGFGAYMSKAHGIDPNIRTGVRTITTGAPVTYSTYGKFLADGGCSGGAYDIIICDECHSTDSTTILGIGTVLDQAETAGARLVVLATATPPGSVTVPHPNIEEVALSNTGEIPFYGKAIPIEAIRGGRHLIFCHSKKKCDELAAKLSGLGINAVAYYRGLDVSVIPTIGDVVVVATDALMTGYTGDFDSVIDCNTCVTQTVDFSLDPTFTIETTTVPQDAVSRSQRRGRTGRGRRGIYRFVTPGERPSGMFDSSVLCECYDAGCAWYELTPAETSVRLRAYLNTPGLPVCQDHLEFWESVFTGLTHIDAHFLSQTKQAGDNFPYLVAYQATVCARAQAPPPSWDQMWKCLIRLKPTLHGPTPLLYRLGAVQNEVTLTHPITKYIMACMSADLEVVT
The experiment in a line: HCV protease FRET assay (IC50_APP), wild type NS3/4A 1b.
Conditions: not given
It is filed as biochemical. How it is done: HCV Protease FRET Assay for WT and Mutated NS3/4A 1b Enzymes (IC50_APP).
The following protocol was used to generate “apparent” IC50 (IC50_APP) values as depicted in Table 6, below. Without wishing to be bound by any particular theory, it is believed that IC50_APP, contrasted with IC50 values, may provide a more useful indication of time-dependent inhibition, and are thus more representative of binding affinity. […] 5 μL of each enzyme were added to Corning (#3575) 384-well, black, microtiter plates (Corning, N.Y.) after spotting a 0.5 μL volume of 50% DMSO and serially diluted compounds prepared in 50% DMSO. Protease reactions were immediately started after enzyme addition with the addition of 45 μL of the FRET substrate and monitored for 60-90 minutes at λex485/λem520 in a Synergy plate reader from BioTek (Winooski, Vt.). At the conclusion of each assay, progress curves from each well were examined for linear reaction kinetics and fit statistics (R^2, 95% confidence intervals, absolute sum of squares). Initial velocity (0 minutes to 15+ minutes) from each reaction was determined from the slope of a plot of relative fluorescence units vs time (minutes) and then plotted against inhibitor concentration as a percent of the no inhibitor and no enzyme controls to estimate apparent IC50 from log [Inhibitor] vs Response. (Variable Slope model in GraphPad Prism from GraphPad Software (San Diego, Calif.).)
By IC50 is commonly meant the concentration that inhibits the measured activity by half. Take `C=C[C@@H]1C[C@]1(NC(=O)[C@@H]1CC(OC(=O)N2Cc3cccc(F)c3C2)CN1C(=O)[C@H](CCNC(=O)[C@H]1CCC(=O)O1)NC(=O)OC(C)(C)C)C(=O)NS(=O)(=O)C1CC1` (stereo partly drawn) [XVI-10, (5S)-1-((S)-2-(tert-butoxycarbonylamino)-4-((R)-5-oxotetrahydrofuran-2-carboxamido)butanoyl)-5-((1R,2S)-1-(cyclopropylsulfonylcarbamoyl)-2-vinylcyclopropylcarbamoyl)pyrrolidin-3-yl 4-fluoroisoindoline-2-carboxylate]: the IC50 lay within 0.1 to 1 µM.

Take `C=C[C@@H]1C[C@]1(NC(=O)[C@@H]1CC(OC(=O)N2Cc3cccc(F)c3C2)CN1C(=O)[C@H](CCNC(=O)[C@@H]1CCC(=O)O1)NC(=O)OC(C)(C)C)C(=O)NS(=O)(=O)C1CC1` (stereo partly drawn) [XVI-11, (5S)-1-((S)-2-(tert-butoxycarbonylamino)-4-((S)-5-oxotetrahydrofuran-2-carboxamido)butanoyl)-5-((1R,2S)-1-(cyclopropylsulfonylcarbamoyl)-2-vinylcyclopropylcarbamoyl)pyrrolidin-3-yl 4-fluoroisoindoline-2-carboxylate]: the IC50 is 0.1 to 1 µM.

For `C=C[C@@H]1C[C@]1(NC(=O)[C@@H]1CC(OC(=O)N2Cc3cccc(F)c3C2)CN1C(=O)CNC(=O)[C@H]1CCC(=O)O1)C(=O)NS(=O)(=O)C1CC1` (stereo partly drawn) [XVI-12, (5S)-5-((1R,2S)-1-(cyclopropylsulfonylcarbamoyl)-2-vinylcyclopropylcarbamoyl)-1-(2-((R)-5-oxotetrahydrofuran-2-carboxamido)acetyl)pyrrolidin-3-yl 4-fluoroisoindoline-2-carboxylate], the IC50 fell in the range of 0.1 to 1 µM.

For the compound `C=C[C@@H]1C[C@]1(NC(=O)[C@@H]1CC(OC(=O)N2Cc3cccc(F)c3C2)CN1C(=O)CNC(=O)[C@@H]1CCC(=O)O1)C(=O)NS(=O)(=O)C1CC1` (stereo partly drawn) [XVI-13, (5S)-5-((1R,2S)-1-(cyclopropylsulfonylcarbamoyl)-2-vinylcyclopropylcarbamoyl)-1-(2-((S)-5-oxotetrahydrofuran-2-carboxamido)acetyl)pyrrolidin-3-yl 4-fluoroisoindoline-2-carboxylate], the IC50 lay within 0.1 to 1 µM.

For the compound `C=C[C@@H]1C[C@]1(NC(=O)[C@@H]1CC(OC(=O)N2Cc3cccc(F)c3C2)CN1C(=O)[C@H](CN(C)C(=O)[C@H]1CCC(=O)O1)NC(=O)OC(C)(C)C)C(=O)NS(=O)(=O)C1CC1` (stereo partly drawn) [XVI-18, (5S)-1-((S)-2-(tert-butoxycarbonylamino)-3-((R)-N-methyl-5-oxotetrahydrofuran-2-carboxamido)propanoyl)-5-((1R,2S)-1-(cyclopropylsulfonylcarbamoyl)-2-vinylcyclopropylcarbamoyl)pyrrolidin-3-yl 4-fluoroisoindoline-2-carboxylate], the IC50 fell in the range of 0.001 to 0.01 µM.

With `C=C[C@@H]1C[C@]1(NC(=O)[C@@H]1CC(OC(=O)N2Cc3cccc(F)c3C2)CN1C(=O)[C@H](CN(C)C(=O)[C@@H]1CCC(=O)O1)NC(=O)OC(C)(C)C)C(=O)NS(=O)(=O)C1CC1` (stereo partly drawn) [XVI-19, (5S)-1-((S)-2-(tert-butoxycarbonylamino)-3-((S)-N-methyl-5-oxotetrahydrofuran-2-carboxamido)propanoyl)-5-((1R,2S)-1-(cyclopropylsulfonylcarbamoyl)-2-vinylcyclopropylcarbamoyl)pyrrolidin-3-yl 4-fluoroisoindoline-2-carboxylate], the IC50 is 0.001 to 0.01 µM.

Turning to `C=C[C@@H]1C[C@]1(NC(=O)[C@@H]1CC(OC(=O)N2Cc3cccc(F)c3C2)CN1C(=O)[C@H](CNC(=O)[C@H]1CCC(=O)O1)NC(=O)OC(C)(C)C)C(=O)NS(=O)(=O)C1CC1` (stereo partly drawn) [XVI-20, (5S)-1-((S)-2-(tert-butoxycarbonylamino)-3-((R)-5-oxotetrahydrofuran-2-carboxamido)propanoyl)-5-((1R,2S)-1-(cyclopropylsulfonylcarbamoyl)-2-vinylcyclopropylcarbamoyl)pyrrolidin-3-yl 4-fluoroisoindoline-2-carboxylate], the IC50 fell in the range of 0.001 to 0.01 µM.

For the compound `C=C[C@@H]1C[C@]1(NC(=O)[C@@H]1CC(OC(=O)N2Cc3cccc(F)c3C2)CN1C(=O)[C@H](CNC(=O)[C@@H]1CCC(=O)O1)NC(=O)OC(C)(C)C)C(=O)NS(=O)(=O)C1CC1` (stereo partly drawn) [XVI-21, (5S)-1-((S)-2-(tert-butoxycarbonylamino)-3-((S)-5-oxotetrahydrofuran-2-carboxamido)propanoyl)-5-((1R,2S)-1-(cyclopropylsulfonylcarbamoyl)-2-vinylcyclopropylcarbamoyl)pyrrolidin-3-yl 4-fluoroisoindoline-2-carboxylate], the IC50 was in the range of 0.001 to 0.01 µM.

As for `C=C[C@@H]1C[C@]1(NC(=O)[C@@H]1CC(OC(=O)N2Cc3cccc(F)c3C2)CN1C(=O)[C@H]1CCC(=O)O1)C(=O)NS(=O)(=O)C1CC1` (stereo partly drawn) [XVI-22, (5S)-5-((1R,2S)-1-(cyclopropylsulfonylcarbamoyl)-2-vinylcyclopropylcarbamoyl)-1-((R)-5-oxotetrahydrofuran-2-carbonyl)pyrrolidin-3-yl 4-fluoroisoindoline-2-carboxylate], the IC50 was over 1 µM.

On to `C=C[C@@H]1C[C@]1(NC(=O)[C@@H]1CC(OC(=O)N2Cc3cccc(F)c3C2)CN1C(=O)[C@@H]1CCC(=O)O1)C(=O)NS(=O)(=O)C1CC1` (stereo partly drawn) [XVI-23, (5S)-5-((1R,2S)-1-(cyclopropylsulfonylcarbamoyl)-2-vinylcyclopropylcarbamoyl)-1-((S)-5-oxotetrahydrofuran-2-carbonyl)pyrrolidin-3-yl 4-fluoroisoindoline-2-carboxylate], for which the IC50 lay in the range of 0.1 to 1 µM.

In a further experiment the target is T2, p110α/p85α (PI3Kα) (Homo sapiens, UniProt P42336).
T2 construct: purchased BPS Bioscience or Millipore 40620 (BPS Bioscience) or 14-602 (Millipore)
T2 sequence (P42336 whole entry): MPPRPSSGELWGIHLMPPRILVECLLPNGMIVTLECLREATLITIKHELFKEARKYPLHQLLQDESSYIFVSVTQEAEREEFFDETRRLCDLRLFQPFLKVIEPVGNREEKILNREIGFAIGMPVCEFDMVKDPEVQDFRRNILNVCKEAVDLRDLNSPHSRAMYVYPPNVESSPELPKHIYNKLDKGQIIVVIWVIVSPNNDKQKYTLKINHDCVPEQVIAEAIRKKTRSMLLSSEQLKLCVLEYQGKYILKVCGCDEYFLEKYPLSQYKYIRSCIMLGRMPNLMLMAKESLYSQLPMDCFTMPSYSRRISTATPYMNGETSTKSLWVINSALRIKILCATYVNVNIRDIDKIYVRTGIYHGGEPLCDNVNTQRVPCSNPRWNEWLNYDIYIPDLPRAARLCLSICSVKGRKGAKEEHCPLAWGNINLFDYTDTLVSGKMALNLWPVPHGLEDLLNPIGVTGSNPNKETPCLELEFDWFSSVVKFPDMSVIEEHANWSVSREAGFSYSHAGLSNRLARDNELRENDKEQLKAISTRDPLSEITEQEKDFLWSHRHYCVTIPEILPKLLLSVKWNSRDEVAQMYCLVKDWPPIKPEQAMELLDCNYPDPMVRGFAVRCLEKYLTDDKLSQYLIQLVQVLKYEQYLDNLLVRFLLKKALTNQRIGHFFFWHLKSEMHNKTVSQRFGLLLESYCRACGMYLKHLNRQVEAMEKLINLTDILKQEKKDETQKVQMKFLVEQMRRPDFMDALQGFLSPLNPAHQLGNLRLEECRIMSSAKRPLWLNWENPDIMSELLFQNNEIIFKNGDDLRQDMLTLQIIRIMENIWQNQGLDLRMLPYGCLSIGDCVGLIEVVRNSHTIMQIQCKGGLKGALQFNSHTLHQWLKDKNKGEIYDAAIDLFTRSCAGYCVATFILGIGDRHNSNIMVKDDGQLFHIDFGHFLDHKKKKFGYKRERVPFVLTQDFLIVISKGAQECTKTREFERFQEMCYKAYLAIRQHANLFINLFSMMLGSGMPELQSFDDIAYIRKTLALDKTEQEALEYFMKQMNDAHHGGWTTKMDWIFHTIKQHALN
T2 sequence (P27986 whole entry partner): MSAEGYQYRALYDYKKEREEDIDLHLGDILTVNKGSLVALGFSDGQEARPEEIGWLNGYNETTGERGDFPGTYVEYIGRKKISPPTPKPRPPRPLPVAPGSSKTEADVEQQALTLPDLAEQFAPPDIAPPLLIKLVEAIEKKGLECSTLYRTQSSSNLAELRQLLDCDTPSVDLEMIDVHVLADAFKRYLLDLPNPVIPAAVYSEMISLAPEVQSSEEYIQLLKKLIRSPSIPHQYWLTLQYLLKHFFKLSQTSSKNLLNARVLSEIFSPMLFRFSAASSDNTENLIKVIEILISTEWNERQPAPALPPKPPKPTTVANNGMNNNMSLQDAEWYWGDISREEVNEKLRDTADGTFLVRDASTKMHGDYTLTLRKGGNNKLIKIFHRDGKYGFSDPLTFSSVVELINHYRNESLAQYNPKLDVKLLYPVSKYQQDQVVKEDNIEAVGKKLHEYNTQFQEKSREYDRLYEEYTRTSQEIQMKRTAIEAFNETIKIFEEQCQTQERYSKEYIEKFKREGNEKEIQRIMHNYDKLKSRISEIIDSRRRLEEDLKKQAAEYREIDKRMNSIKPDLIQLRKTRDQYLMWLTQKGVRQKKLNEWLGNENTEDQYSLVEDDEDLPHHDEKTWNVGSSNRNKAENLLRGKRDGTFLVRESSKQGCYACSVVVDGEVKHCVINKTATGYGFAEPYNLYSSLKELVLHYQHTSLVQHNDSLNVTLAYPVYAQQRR
The experiment in a line: HTRF assay, p110α/p85α. In kind it is biochemical. To be noted: read-out: PI3Kα-HTRF-IC50 nM Inhibition Designation. The method, then: HTRF Assay Protocol for Potency Assessment Against the Active Form of p110α/p85α:
The mechanics of the assay platform are best described by the vendor (Millipore, Billerica, Mass.) on their website at the following URL: http://www.millipore.com/coa/tech1/74jt4z.
Briefly, Stop solution (Stop A, #33-007 and Stop B, #33-009; 3:1 ratio) and Detection Mix (DMC, #33-015 with DMA, #33-011 and DMB, #33-013; 18:1:1 ratio) were prepared as recommended by the manufacturer ˜2 hrs prior to use. […] Lipid kinase reactions were started with the addition of 5 μL of ATP solution, mixed for 15 sec on a rotary plate shaker and incubated for 15-30 minutes at 25° C. Next, reactions were stopped with a 5 μL addition of Stop solution followed by a 5 μL volume of Detection Mix. […] At the conclusion of each assay, the HTRF ratio from fluorescence emission values for each well was calculated and % Inhibition determined from averaged controls wells. % Inhibition values for each compound re then plotted against inhibitor concentration to estimate IC50 from log [Inhibitor] vs Response, Variable Slope model in GraphPad Prism from GraphPad Software (San Diego, Calif.).
In general terms: Time-resolved FRET reads energy transfer from a long-lived donor to a nearby acceptor.
As for `CC(=O)CC(=O)N1CCN(Cc2cc3nc(-c4cccc5[nH]ncc45)nc(N4CCOCC4)c3s2)CC1` [XXII-14], the IC50 lay in the range of 10 to 100 nM.

Turning to `O=C(N1CCN(Cc2cc3nc(-c4cccc5[nH]ncc45)nc(N4CCOCC4)c3s2)CC1)n1ccnc1` [XXII-16, (4-((2-(1H-indazol-4-yl)-4-morpholinothieno[3,2-d]pyrimidin-6-yl)methyl)piperazin-1-yl)(1H-imidazol-1-yl)methanone], the IC50 was 10 to 100 nM.

Consider `O=C(N1CCN(Cc2cc3nc(-c4ccccc4)nc(N4CCOCC4)c3s2)CC1)n1ccnc1` [XXII-18], for which the IC50 was in the range of 1000 to 10000 nM.

In the case of `C=CC(=O)N1CCN(Cc2cc3nc(-c4ccccc4)nc(N4CCOCC4)c3s2)CC1` [XXII-19], the IC50 was 1000 to 10000 nM.

For the compound `C=CC(=O)n1cc(-c2ccc3c(c2)N(c2nc4c(s2)C(=O)NC(C)(C)C4)CCO3)cn1` [XXIII-5, 2-(6-(1-acryloyl-1H-pyrazol-4-yl)-2H-benzo[b][1,4]oxazin-4(3H)-yl)-6,6-dimethyl-6,7-dihydrothiazolo[5,4-c]pyridin-4(5H)-one], the IC50 lay within 100 to 1000 nM.
